What all share (assay type): in vivo
One experiment has as its system PTH agonist. Nature of the experiment: Clinical trial in ESRD patients: PTH agonist assay (Scantibodies) on blood samples. The following applies: for PTH agonist decrease: median values; for PTH agonist: median of ninety patients, 5.5 μg intravenously every three days. As to the method:
(§1) A clinical trial was held for ninety ESRD patients. Each patient had been receiving vitamin D suppressant therapy in accordance with the manufacturer's guidelines. Each patient was removed from the therapy for a washout period of four weeks, and this was confirmed by a rise in PTH measurements after removal of the therapeutic. PTH maxacalcitol (made by Chugai Pharmaceutical Corporation of Tokyo, Japan) suppressant therapy was started after the washout at a constant administration of 5.5 μg intravenously every three days. Blood samples were obtained from each patient after the washout (week 0), six weeks after therapy restart (week 6), and twelve weeks after therapy restart (week 12). The samples were assayed for PTH agonist levels and PTH antagonist levels using the PTH agonist assay and total PTH assay made by Scantibodies Laboratory, Inc. The samples were assayed for bone specific alkaline phosphatase using a commercially available immunoassay from Hybritech, Inc. of San Diego, Calif.
(§2) The results of the assays for the ninety patients are shown in FIG. 2 and the following table as median values: […]

The next experiment has as its system Total PTH. Nature of the experiment: Clinical trial in ESRD patients: total PTH assay (Scantibodies) on blood samples. The following applies: for Total PTH decrease: median values; for Total PTH: median of ninety patients, 5.5 μg intravenously every three days. As to the method: as §1, §2
The subject of experiment [1] is bone specific alkaline phosphatase. Nature of the experiment: Clinical trial in ESRD patients: bone specific alkaline phosphatase immunoassay (Hybritech). Particulars: for Alkaline Phosphatase decrease: median values; for Alkaline Phosphatase: median of ninety patients, 5.5 μg intravenously every three days. As to the method: as §1, §2
The subject of the next experiment is PTH antagonist. Nature of the experiment: Clinical trial in ESRD patients: PTH antagonist level (total PTH minus PTH agonist). The following applies: for PTH antagonist decrease: 6 weeks versus 0 weeks; for PTH antagonist decrease / PTH antagonist increase: median values; for PTH antagonist increase: 12 weeks versus 6 weeks; for PTH antagonist: median of ninety patients, 5.5 μg intravenously every three days.
Excerpt: PTH antagonist levels should be measured using an assay that either directly detects PTH antagonist (but not PTH agonist) or indirectly through a total PTH measurement that measures the sum of the PTH agonist and PTH antagonist. An indirect measurement subtracts the PTH agonist value from the total PTH value, deriving the PTH antagonist value. Thus, one should use a total PTH assay that is designed to have essentially 100% cross-reactivity with PTH antagonist and PTH agonist. For example, Scantibodies Laboratory Total Intact PTH Assay or Scantibodies Laboratory Intact PTH Assay are appropriate assays.
as §1, §2

Setting [2] is: 6 weeks versus 0 weeks, listed as PTH suppressant.
The mark [3] stands for this setting: 12 weeks versus 6 weeks, listed as PTH suppressant.

Take `C=C1/C(=C\C=C2/CCC[C@]3(C)[C@@H]([C@H](C)OCCC(C)(C)O)CC[C@@H]23)C[C@@H](O)C[C@@H]1O` [maxacalcitol]: the PTH agonist decrease result was “(41% decrease)” in the experiment with PTH agonist (6 weeks versus 0 weeks), 41% in the experiment with PTH agonist (setting [2]), “(8% decrease)” in the experiment with PTH agonist (12 weeks versus 6 weeks) and 8% in the experiment on PTH agonist (setting [3]). In addition, the PTH agonist came to 361 pg/mL in the experiment on PTH agonist (6 weeks (0 weeks: 609)) and 331 pg/mL with PTH agonist (12 weeks (0 weeks: 609)). Further, the “Total PTH decrease” value with Total PTH (6 weeks versus 0 weeks) is on record as “(41% decrease)”; in the experiment on Total PTH (setting [2]) it was 41%; in the experiment on Total PTH (12 weeks versus 6 weeks) it was “(1% decrease)”; in the experiment on Total PTH (setting [3]) it was 0.8%. For the same compound, the “Total PTH” value was determined as 531 pg/mL with Total PTH (6 weeks (0 weeks: 886)) and 525 pg/mL in the experiment with Total PTH (12 weeks (0 weeks: 886)). Also, the “Alkaline Phosphatase decrease” value in experiment [1] (6 weeks versus 0 weeks) was “(13% decrease)”; in experiment [1] (12 weeks versus 6 weeks), “(16% decrease)”. The “Alkaline Phosphatase” value in experiment [1] (6 weeks (0 weeks: 396)) is on record as 344 U/ml; in experiment [1] (12 weeks (0 weeks: 396)), 290 U/ml. Also, the PTH antagonist decrease result is “(42% decrease)” with PTH antagonist and 42% with PTH antagonist (listed as PTH suppressant). The PTH antagonist increase result with PTH antagonist is reported as “(21% increase)”; with PTH antagonist (listed as PTH suppressant) it was 21%. For the same compound, the PTH antagonist amounted to 160 pg/mL in the experiment on PTH antagonist (6 weeks (0 weeks: 276)) and 194 pg/mL in the experiment with PTH antagonist (12 weeks (0 weeks: 276)).

Values taken from patent publication US7056655B2, “Methods for monitoring and guiding therapeutic suppression of parathyroid hormone in renal patients having secondary hyperparathyroidism” (Scantibodies Laboratory, Inc., priority 2001, dated 2006).
